# Patent publication US20240215578A1 (priority 2022, published 2024)
# Key:
# [1] = test system: R. solanacearum; format: cell-based; conditions: Oxford cup, 37° C., 16-18 hours, FIG. 1
# [2] = test system: E. carotovora
# [3] = test system: E. coli
# [4] = test system: R. solanacearum; conditions: for bactericidal activity against R. solanacearum: from data in Table 4
SMILES,"bactericidal activity (zone of inhibition), preliminary screening [1]",LC50 [2],LC50 [3],activity against E. coli compared with the control drugs [3],LC50 [4],activity against E. carotovora compared with the control drugs [2],bactericidal activity against R. solanacearum [4]
O=C(O)c1cn(C2CC2)c2ccccc2c1=O [Compound I2],significant bactericidal activity,5.284 ppm,0.913 ppm,more active against E. coli than the control drugs,13.790 ppm,,
CCn1cc(C(=O)O)c(=O)c2ccc(C)nc21 [Compound I36],significant bactericidal activity,15.743 ppm,37.917 ppm,,30.519 ppm,,
CCn1cc(C(=O)O)c(=O)c2cc(F)c(Cl)nc21 [Compound I38],significant bactericidal activity,0.264 ppm,12.643 ppm,,12.724 ppm,more active against E. carotovora than the control drugs,
O=C(O)c1cn(C2CC2)c2nc(Cl)c(F)cc2c1=O [Compound I40],significant bactericidal activity,4.040 ppm,0.064 ppm,more active against E. coli than the control drugs,0.002 ppm,more active against E. carotovora than the control drugs,significant bactericidal activity
O=C(O)c1cn(C2CC2)c2nc(N3CCNCC3)c(F)cc2c1=O [Compound I44],significant bactericidal activity,0.00018 ppm,0.0000091 ppm,more active against E. coli than the control drugs,0.284 ppm,more active against E. carotovora than the control drugs,significant bactericidal activity
"[H]/N=C(/N)N[C@H]1[C@H](O)[C@@H](O)[C@H](O[C@@H]2O[C@@H](C)[C@](O)(C=O)[C@H]2O[C@@H]2O[C@@H](CO)[C@H](O)[C@@H](O)[C@@H]2NC)[C@@H](N/C(N)=N\[H])[C@@H]1O [Streptomycin, reference compound]",,4.519 ppm,1.918 ppm,,0.169 ppm,,
